What follows are compounds tested against T1, human H4 receptor (Homo sapiens, UniProt Q9H3N8) (assay: Binding Assay on Recombinant Human Histamine H4 Receptor). Settings: Table 1; [3H] histamine competition binding, membranes of SK-N-MC cells transfected with human H4 receptor; average of results.
T1 construct: expressed in transfected cells
T1 sequence (Q9H3N8 whole entry): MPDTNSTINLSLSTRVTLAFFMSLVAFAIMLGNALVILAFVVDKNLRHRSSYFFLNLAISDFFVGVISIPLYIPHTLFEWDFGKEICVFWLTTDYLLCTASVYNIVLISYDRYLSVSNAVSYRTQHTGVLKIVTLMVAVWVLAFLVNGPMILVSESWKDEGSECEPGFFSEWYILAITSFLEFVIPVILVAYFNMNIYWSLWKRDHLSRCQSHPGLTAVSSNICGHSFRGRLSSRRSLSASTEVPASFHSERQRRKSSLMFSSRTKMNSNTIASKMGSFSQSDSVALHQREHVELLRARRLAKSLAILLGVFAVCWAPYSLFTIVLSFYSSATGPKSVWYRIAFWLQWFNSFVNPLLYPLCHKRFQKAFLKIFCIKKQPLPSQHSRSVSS
Procedure: Binding Assay on Recombinant Human Histamine H4 Receptor.
Cell pellets from SK-N-MC cells stably or transiently transfected with human H4 receptor were used for the binding assays. Cell pellets were homogenized in 50 mM Tris/5 mM EDTA buffer and supernatants from an 800g spin were collected and recentrifuged at 30,000g for 30 min. Pellets were rehomogenized in 50 mM Tris/5 mM EDTA buffer. […] Compounds were tested in free base, hydrochloride salt, or trifluoroacetic acid form. Nonspecific binding was defined with 100 μM cold histamine. […] Membranes were harvested by rapid filtration using the 96 well Brandel system or a cell harvester using a Whatman GF/C filter or filter plates treated with 0.5% polyethylenimine (PEI), and washed 4 times with ice-cold 50 mM Tris/5 mM EDTA buffer. Filters were then dried, mixed with scintillant and radioactive counts were determined. […] Data marked with an asterisk (*) were obtained by the cell harvester method. Where activity is shown as greater than (>) a particular value, the value is the highest concentration tested.
Work on CN1CCN(c2cc(C3CCCCC3)nc(N)n2)CC1 [Example 52, 4-Cyclohexyl-6-(4-methyl-piperazin-1-yl)-pyrimidin-2-ylamine] yielded a Ki of 0.003 µM.
With CN[C@@H]1CCN(c2cc(C3CCCCC3)nc(N)n2)C1 [Example 53, (R)-(4-Cyclohexyl-6-3-methylamino-pyrrolidin-1-yl)-pyrimidin-2-ylamine] the Ki was 0.003 µM.
In the case of Nc1nc(C2CCCCC2)cc(N2CC3CCNC3C2)n1 (stereo not drawn) [Example 54, 4-Cyclohexyl-6-(cis-hexahydro-pyrrolo[3,4-b]pyrrol-5-yl)-pyrimidin-2-ylamine], the Ki is reported as 0.002 µM.
Compound Nc1nc(C2CCCCC2)cc(N2C[C@H]3CCCN[C@H]3C2)n1 [Example 55, (R,R)-4-Cyclohexyl-6-(octahydro-pyrrolo[3,4-b]pyridin-6-yl)-pyrimidin-2-ylamine] has a Ki of 0.001 µM.
With Nc1nc(C2CCOC2)cc(N2CCNCC2)n1 (stereo not shown) [Example 56, 4-piperazin-1-yl-6-(tetrahydro-furan-3-yl)-pyrimidin-2-ylamine] the Ki was 0.02 µM.
CN1CCN(c2cc(C3CCOC3)nc(N)n2)CC1 (stereo not shown) [Example 57, 4-(4-Methyl-piperazin-1-yl)-6-(tetrahydro-furan-3-yl)-pyrimidin-2-ylamine] was tested, and the Ki was 0.027 µM.
For Nc1nc(C2CCOCC2)cc(N2CCNCC2)n1 [Example 58, 4-piperazin-1-yl-6-(tetrahydro-pyran-4-yl)-pyrimidin-2-ylamine], the Ki was 0.041 µM.
Compound CN1CCN(c2cc(C3CCOCC3)nc(N)n2)CC1 [Example 59, 4-(4-Methyl-piperazin-1-yl)-6-(tetrahydro-pyran-4-yl)-pyrimidin-2-ylamine] has a Ki of 0.029 µM.
CN[C@@H]1CCN(c2cc(C3CCOCC3)nc(N)n2)C1 [Example 60, (R)-4-(3-Methylamino-pyrrolidin-1-yl)-6-(tetrahydro-pyran-4-yl)-pyrimidin-2-ylamine] showed a Ki of 0.031 µM.
Nc1nc(C2CCOCC2)cc(N2C[C@H]3CCCN[C@H]3C2)n1 [Example 61, (R,R)-4-(Octahydro-pyrrolo[3,4-b]pyridin-6-yl)-6-(tetrahydro-pyran-4-yl)-pyrimidin-2-ylamine] showed a Ki of 0.024 µM.
Nc1nc(Cc2ccccc2)cc(N2CCNCC2)n1 [Example 62, 4-Benzyl-6-piperazin-1-yl-pyrimidin-2-ylamine] was tested, and the Ki was 0.03 µM.
In the case of CN1CCN(c2cc(Cc3ccccc3)nc(N)n2)CC1 [Example 63, 4-Benzyl-6-(4-methyl-piperazin-1-yl)-pyrimidin-2-ylamine], the Ki is reported as 0.021 µM.
Nc1nc(Cc2ccccc2)cc(N2C[C@H]3CCCN[C@H]3C2)n1 [Example 65, (R,R)-4-Benzyl-6-(octahydro-pyrrolo[3,4-b]pyridin-6-yl)-pyrimidin-2-ylamine] was tested, and the Ki was 0.047 µM.
With CN1CCN(c2nc(N)nc3c2CCCC3)CC1 [Example 66, 4-(4-Methyl-piperazin-1-yl)-5,6,7,8-tetrahydro-quinazolin-2-ylamine] the Ki was 0.004 µM.
Nc1nc2c(c(N3CC[C@@H](N)C3)n1)CCCC2 [Example 68, (R)-4-(3-Amino-pyrrolidin-1-yl)-5,6,7,8-tetrahydro-quinazolin-2-ylamine] gave a Ki of 0.115 µM.
With CN[C@@H]1CCN(c2nc(N)nc3c2CCCC3)C1 [Example 69, (R)-4-(3-Methylamino-pyrrolidin-1-yl)-5,6,7,8-tetrahydro-quinazolin-2-ylamine] the Ki was 0.043 µM.
Nc1nc2c(c(N3C[C@H]4CCN[C@H]4C3)n1)CCCC2 [Example 70, (R,R)-4-(Hexahydro-pyrrolo[3,4-b]pyrrol-5-yl)-5,6,7,8-tetrahydro-quinazolin-2-ylamine] gave a Ki of 0.404 µM.
With Nc1nc2c(c(N3CC4CCCNC4C3)n1)CCCC2 (stereo not drawn) [Example 71, 4-(cis-Octahydro-pyrrolo[3,4-b]pyridin-6-yl)-5,6,7,8-tetrahydro-quinazolin-2-ylamine] the Ki was 0.005 µM.
In the case of Nc1nc2c(c(N3C[C@H]4CCCN[C@H]4C3)n1)CCCC2 [Example 72, (R,R)-4-(Octahydro-pyrrolo[3,4-b]pyridin-6-yl)-5,6,7,8-tetrahydro-quinazolin-2-ylamine], the Ki is reported as 0.014 µM.
Nc1nc2c(c(N3C[C@@H]4C[C@H]3CN4)n1)CCCC2 [Example 73, (S,S)-4-(2,5-Diaza-bicyclo[2.2.1]hept-2-yl)-5,6,7,8-tetrahydro-quinazolin-2-ylamine] was tested, and the Ki was greater than 10 µM.
For CN1CCN(c2nc(N)nc3c2CCC3)CC1 [Example 74, 4-(4-Methyl-piperazin-1-yl)-6,7-dihydro-5H-cyclopentapyrimidin-2-ylamine], the Ki was 0.076 µM.
Work on CN[C@@H]1CCN(c2nc(N)nc3c2CCC3)C1 [Example 75, (R)-4-(3-Methylamino-pyrrolidin-1-yl)-6,7-dihydro-5H-cyclopentapyrimidin-2-ylamine] yielded a Ki of 0.159 µM.

Same assay, conditions: Table 2, data marked with an asterisk (*): obtained by the cell harvester method; [3H] histamine competition binding, SK-N-MC membranes
For CC(C)c1cc(N2CCN(C)CC2)nc(N)n1 [Example 95, 4-Isopropyl-6-(4-methyl-piperazin-1-yl)-pyrimidin-2-ylamine], the Ki was 0.008 µM.
CCCCc1nc(N)nc(N2CC(N)C2)c1OC [Example 103, 4-(3-Amino-azetidin-1-yl)-6-butyl-5-methoxy-pyrimidin-2-ylamine] was tested, and the Ki was 0.022 µM.
For CCCCc1nc(N)nc(N2CC[C@@H](N)C2)c1OC [Example 104, (R)-4-(3-Amino-pyrrolidin-1-yl)-6-butyl-5-methoxy-pyrimidin-2-ylamine], the Ki was 0.096 µM.
With CCCCc1nc(N)nc(N2CC[C@@H](NC)C2)c1OC [Example 106, (R)-4-Butyl-5-methoxy-6-(3-methylamino-pyrrolidin-1-yl)-pyrimidin-2-ylamine] the Ki was 0.039 µM.
Work on CCCCc1nc(N)nc(N(C)CCN)c1OC [Example 109, N^4-(2-Amino-ethyl)-6-butyl-5-methoxy-N^4-methyl-pyrimidine-2,4-diamine] yielded a Ki of 0.517 µM.

Same assay, conditions: Table 2; [3H] histamine competition binding, membranes of SK-N-MC cells transfected with human H4 receptor; average of results
Compound Nc1nc(C2CCCC2)cc(N2C[C@H]3CCCN[C@H]3C2)n1 [Example 81, (R,R)-4-Cyclopentyl-6-(octahydro-pyrrolo[3,4-b]pyridin-6-yl)-pyrimidin-2-ylamine] has a Ki of 0.002 µM.
CN1C[C@@H]2CN(c3cc(C4CCCC4)nc(N)n3)C[C@@H]2C1 [Example 82, 4-Cyclopentyl-6-(cis-5-methyl-hexahydro-pyrrolo[3,4-c]pyrrol-2-yl)-pyrimidin-2-ylamine] gave a Ki of 0.025 µM.
Compound Nc1nc(C2CCCC2)cc(N2C[C@H]3CCN[C@H]3C2)n1 [Example 83, (R,R)-4-Cyclopentyl-6-(hexahydro-pyrrolo[3,4-b]pyrrol-5-yl)-pyrimidin-2-ylamine] has a Ki of 0.003 µM.
Work on Nc1nc(C2CCCC2)cc(N2CC(N)C2)n1 [Example 85, 4-(3-Amino-azetidin-1-yl)-6-cyclopentyl-pyrimidin-2-ylamine] yielded a Ki of 0.006 µM.
Nc1nc(C2CCCC2)cc(N2CC3CNCC3C2)n1 (stereo not shown) [Example 87, 4-Cyclopentyl-6-(hexahydro-pyrrolo[3,4-c]pyrrol-2-yl)-pyrimidin-2-ylamine] was tested, and the Ki was 0.328 µM.
CC(C)c1cc(NCCN)nc(N)n1 [Example 89, (2-Amino-ethyl)-6-isopropyl-pyrimidine-2,4-diamine] gave a Ki of 0.019 µM.
For CC(C)c1cc(N2CC(N)C2)nc(N)n1 [Example 90, 4-(3-Amino-azetidin-1-yl)-6-isopropyl-pyrimidin-2-ylamine], the Ki was 0.014 µM.
For CC(C)c1cc(N2CCC3(CCCN3)C2)nc(N)n1 (stereo not shown) [Example 91, 4-(1,7-Diaza-spiro[4.4]non-7-yl)-6-isopropyl-pyrimidin-2-ylamine], the Ki was 0.084 µM.
CC(C)c1cc(N(C)CCN)nc(N)n1 [Example 92, N^4-(2-Amino-ethyl)-6-isopropyl-N^4-methyl-pyrimidine-2,4-diamine] gave a Ki of 0.281 µM.
Compound CN1CCN(c2nc(N)nc3c2COCC3)CC1 [Example 96, 4-(4-Methyl-piperazin-1-yl)-7,8-dihydro-5H-pyrano[4,3-d]pyrimidin-2-ylamine] has a Ki of 0.035 µM.
For Nc1nc2c(c(N3C[C@H]4CCCN[C@H]4C3)n1)COCC2 [Example 97, (R,R)-4-(Octahydro-pyrrolo[3,4-b]pyridin-6-yl)-7,8-dihydro-5H-pyrano[4,3-d]pyrimidin-2-ylamine], the Ki was 0.02 µM.
Compound Nc1nc2c(c(N3CC[C@@H](N)C3)n1)COCC2 [Example 98, (R)-4-(3-Amino-pyrrolidin-1-yl)-7,8-dihydro-5H-pyrano[4,3-d]pyrimidin-2-ylamine] has a Ki of 0.298 µM.
For CN[C@@H]1CCN(c2nc(N)nc3c2COCC3)C1 [Example 99, (R)-4-(3-Methylamino-pyrrolidin-1-yl)-7,8-dihydro-5H-pyrano[4,3-d]pyrimidin-2-ylamine], the Ki was 0.214 µM.
Work on Nc1nc2c(c(N3CCNCC3)n1)COCC2 [Example 100, 4-piperazin-1-yl-7,8-dihydro-5H-pyrano[4,3-d]pyrimidin-2-ylamine] yielded a Ki of 0.262 µM.
In the case of CCCCc1nc(N)nc(N2CCNCC2)c1OC [Example 101, 4-Butyl-5-methoxy-6-piperazin-1-yl-pyrimidin-2-ylamine], the Ki is reported as 0.03 µM.
CCCCc1nc(N)nc(N2CCCNCC2)c1OC [Example 102, 4-Butyl-6-[1,4]diazepan-1-yl-5-methoxy-pyrimidin-2-ylamine] showed a Ki of 0.181 µM.
CCCCc1nc(N)nc(N2CC[C@H](N)C2)c1OC [Example 105, (S)-4-(3-Amino-pyrrolidin-1-yl)-6-butyl-5-methoxy-pyrimidin-2-ylamine] gave a Ki of 0.103 µM.
CCCCc1nc(N)nc(N2CC[C@H](NC)C2)c1OC [Example 107, (S)-4-Butyl-5-methoxy-6-(3-methylamino-pyrrolidin-1-yl)-pyrimidin-2-ylamine] gave a Ki of 0.104 µM.
CCCCc1nc(N)nc(N2CCN(C)CC2)c1OC [Example 108, 4-Butyl-5-methoxy-6-(4-methyl-piperazin-1-yl)-pyrimidin-2-ylamine] showed a Ki of 0.084 µM.

Source: patent US8716475B2, “2-aminopyrimidine modulators of the histamine H4 receptor” (Janssen Pharmaceutica NV, priority 2007, dated 2014)
